# Source: the supplement of paper PMC10307832
# Key:
# Assay in all cases: relative viability (nuclei count vs DMSO), 5 days (fraction); higher = more cells survive
# [1] = test system: NCI-H1650
# Method in brief: (§1)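 Lung cancer cell lines, seeded in 1536-well plates, were treated the following day by pin tool with a single drug or with five library-drug doses (not always all listed) in √10 steps on top of a fixed anchor-drug dose. Cells were fixed and nuclei stained in one step after 5 days, and nuclei were counted. Relative viability is the nuclei count for treated wells divided by that for vehicle wells, reported as medians of duplicate plates.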
# [2] = test system: NCI-H2087
# Method in brief: as §1
# [3] = test system: NCI-H1651
# Method in brief: as §1
# [4] = test system: COR-L23
# Method in brief: as §1
# [5] = test system: COR-L 105
# Method in brief: as §1
# [6] = test system: HCC-44
# Method in brief: as §1
# [7] = test system: NCI-H647
# Method in brief: as §1
# [8] = test system: NCI-H1975
# Method in brief: as §1
# [9] = test system: EPLC-272H
# Method in brief: as §1
# [10] = test system: H3255
# Method in brief: as §1
# [11] = test system: EKVX
# Method in brief: as §1
# [12] = test system: NCI-H661
# Method in brief: as §1
# [13] = test system: NCI-H1792
# Method in brief: as §1
# [14] = test system: HCC-827
# Method in brief: as §1
# [15] = test system: HCC-15
# Method in brief: as §1
# [16] = test system: LCLC-103H
# Method in brief: as §1
# [17] = test system: 201T
# Method in brief: as §1
# [18] = test system: NCI-H358
# Method in brief: as §1
# [19] = test system: NCI-H520
# Method in brief: as §1
# [20] = test system: NCI-H1437
# Method in brief: as §1
# [21] = test system: UMC-11
# Method in brief: as §1
compound,measurement,setting,value
O=C(O)CCCCC(CCSCc1ccccc1)SCc1ccccc1 (centres undefined) [CPI-613] + Nc1nc2[nH]cc(CCc3ccc(C(=O)N[C@@H](CCC(=O)O)C(=O)O)cc3)c2c(=O)[nH]1 [Pemetrexed] (partner 0.2 µM),relative viability,[1]; first compound 5 µM,0.346
same,relative viability,[1]; first compound 15.81 µM,0.376
same,relative viability,[1]; first compound 50 µM,0.393
same,relative viability,[1]; first compound 158.11 µM,0.151
same,relative viability,[1]; first compound 500 µM,0.0174
same,relative viability,[2]; first compound 5 µM,0.642
same,relative viability,[2]; first compound 15.81 µM,0.662
same,relative viability,[2]; first compound 50 µM,0.689
same,relative viability,[2]; first compound 158.11 µM,0.574
same,relative viability,[2]; first compound 500 µM,0.007
same,relative viability,[3]; first compound 5 µM,0.591
same,relative viability,[3]; first compound 15.81 µM,0.588
same,relative viability,[3]; first compound 50 µM,0.579
same,relative viability,[3]; first compound 158.11 µM,0.519
same,relative viability,[3]; first compound 500 µM,0.579
same,relative viability,[4]; first compound 5 µM,0.216
same,relative viability,[4]; first compound 15.81 µM,0.197
same,relative viability,[4]; first compound 50 µM,0.192
same,relative viability,[4]; first compound 158.11 µM,0.2
same,relative viability,[4]; first compound 500 µM,0.013
same,relative viability,[5]; first compound 5 µM,1.01
same,relative viability,[5]; first compound 15.81 µM,1.02
same,relative viability,[5]; first compound 50 µM,1.15
same,relative viability,[5]; first compound 158.11 µM,0.392
same,relative viability,[5]; first compound 500 µM,0.229
same,relative viability,[6]; first compound 5 µM,0.635
same,relative viability,[6]; first compound 15.81 µM,0.61
same,relative viability,[6]; first compound 50 µM,0.592
same,relative viability,[6]; first compound 158.11 µM,0.622
same,relative viability,[6]; first compound 500 µM,0.53
same,relative viability,[7]; first compound 5 µM,0.157
same,relative viability,[7]; first compound 15.81 µM,0.158
same,relative viability,[7]; first compound 50 µM,0.113
same,relative viability,[7]; first compound 158.11 µM,0.0906
same,relative viability,[7]; first compound 500 µM,0.0167
same,relative viability,[8]; first compound 5 µM,0.267
same,relative viability,[8]; first compound 15.81 µM,0.293
same,relative viability,[8]; first compound 50 µM,0.286
same,relative viability,[8]; first compound 158.11 µM,0.142
same,relative viability,[8]; first compound 500 µM,0.0754
same,relative viability,[9]; first compound 5 µM,0.324
same,relative viability,[9]; first compound 15.81 µM,0.289
same,relative viability,[9]; first compound 50 µM,0.318
same,relative viability,[9]; first compound 158.11 µM,0.206
same,relative viability,[9]; first compound 500 µM,0.05
same,relative viability,[10]; first compound 5 µM,0.543
same,relative viability,[10]; first compound 15.81 µM,0.54
same,relative viability,[10]; first compound 50 µM,0.543
same,relative viability,[10]; first compound 158.11 µM,0.534
same,relative viability,[10]; first compound 500 µM,0.523
same,relative viability,[11]; first compound 5 µM,0.373
same,relative viability,[11]; first compound 15.81 µM,0.355
same,relative viability,[11]; first compound 50 µM,0.306
same,relative viability,[11]; first compound 500 µM,0.388
same,relative viability,[12]; first compound 5 µM,0.887
same,relative viability,[12]; first compound 15.81 µM,0.921
same,relative viability,[12]; first compound 50 µM,0.863
same,relative viability,[12]; first compound 158.11 µM,0.557
same,relative viability,[12]; first compound 500 µM,0.131
same,relative viability,[13]; first compound 5 µM,0.744
same,relative viability,[13]; first compound 15.81 µM,0.63
same,relative viability,[13]; first compound 50 µM,0.636
same,relative viability,[13]; first compound 158.11 µM,0.109
same,relative viability,[13]; first compound 500 µM,0.0742
same,relative viability,[14]; first compound 5 µM,0.251
same,relative viability,[14]; first compound 15.81 µM,0.268
same,relative viability,[14]; first compound 50 µM,0.276
same,relative viability,[14]; first compound 158.11 µM,0.267
same,relative viability,[14]; first compound 500 µM,0.273
same,relative viability,[15]; first compound 5 µM,0.231
same,relative viability,[15]; first compound 15.81 µM,0.227
same,relative viability,[15]; first compound 50 µM,0.221
same,relative viability,[15]; first compound 158.11 µM,0.155
same,relative viability,[15]; first compound 500 µM,0.0248
same,relative viability,[16]; first compound 5 µM,0.514
same,relative viability,[16]; first compound 15.81 µM,0.462
same,relative viability,[16]; first compound 50 µM,0.414
same,relative viability,[16]; first compound 158.11 µM,0.452
same,relative viability,[16]; first compound 500 µM,0.272
same,relative viability,[17]; first compound 5 µM,0.268
same,relative viability,[17]; first compound 15.81 µM,0.341
same,relative viability,[17]; first compound 50 µM,0.327
same,relative viability,[17]; first compound 158.11 µM,0.24
same,relative viability,[17]; first compound 500 µM,0.179
same,relative viability,[18]; first compound 5 µM,0.152
same,relative viability,[18]; first compound 15.81 µM,0.172
same,relative viability,[18]; first compound 50 µM,0.182
same,relative viability,[18]; first compound 158.11 µM,0.156
same,relative viability,[18]; first compound 500 µM,0.0253
same,relative viability,[19]; first compound 5 µM,0.708
same,relative viability,[19]; first compound 15.81 µM,0.627
same,relative viability,[19]; first compound 50 µM,0.527
same,relative viability,[19]; first compound 158.11 µM,0.232
same,relative viability,[19]; first compound 500 µM,0.155
same,relative viability,[20]; first compound 5 µM,0.328
same,relative viability,[20]; first compound 15.81 µM,0.295
same,relative viability,[20]; first compound 50 µM,0.301
same,relative viability,[20]; first compound 158.11 µM,0.0937
same,relative viability,[20]; first compound 500 µM,0.0871
same,relative viability,[21]; first compound 5 µM,0.703
same,relative viability,[21]; first compound 15.81 µM,0.8
same,relative viability,[21]; first compound 50 µM,0.758
same,relative viability,[21]; first compound 158.11 µM,0.36
same,relative viability,[21]; first compound 500 µM,0.115
